Experimental data taken from ChEMBL document CHEMBL1201862, “PubChem BioAssay data set” (2004).
Active and inactive are the calls of the source.

Tests used:
[1] = target: T1, Ubiquitin-conjugating enzyme E2 N (Homo sapiens, UniProt P61088); type: functional;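 also: Dose-response confirmation in a TR-FRET assay detecting UBC13-driven polyubiquitin chain formation, inhibition measured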
T1 sequence (P61088 whole entry): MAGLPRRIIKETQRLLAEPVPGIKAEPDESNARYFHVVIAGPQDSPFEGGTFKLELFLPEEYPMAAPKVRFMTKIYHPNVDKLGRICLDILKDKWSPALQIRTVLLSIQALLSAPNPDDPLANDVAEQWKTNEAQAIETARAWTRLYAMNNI

Aminopeptidase N = target: T2, Aminopeptidase N (Plasmodium falciparum FcB1/Columbia, UniProt O96935); assay: P. falciparum M1AAP inhibitors, biochemical, fluorogenic H-Leu-NHMec substrate, 1536-well (AID 1445); set-up: species or system Plasmodium falciparum 3D7, 3D7
T2 sequence (O96935 whole entry): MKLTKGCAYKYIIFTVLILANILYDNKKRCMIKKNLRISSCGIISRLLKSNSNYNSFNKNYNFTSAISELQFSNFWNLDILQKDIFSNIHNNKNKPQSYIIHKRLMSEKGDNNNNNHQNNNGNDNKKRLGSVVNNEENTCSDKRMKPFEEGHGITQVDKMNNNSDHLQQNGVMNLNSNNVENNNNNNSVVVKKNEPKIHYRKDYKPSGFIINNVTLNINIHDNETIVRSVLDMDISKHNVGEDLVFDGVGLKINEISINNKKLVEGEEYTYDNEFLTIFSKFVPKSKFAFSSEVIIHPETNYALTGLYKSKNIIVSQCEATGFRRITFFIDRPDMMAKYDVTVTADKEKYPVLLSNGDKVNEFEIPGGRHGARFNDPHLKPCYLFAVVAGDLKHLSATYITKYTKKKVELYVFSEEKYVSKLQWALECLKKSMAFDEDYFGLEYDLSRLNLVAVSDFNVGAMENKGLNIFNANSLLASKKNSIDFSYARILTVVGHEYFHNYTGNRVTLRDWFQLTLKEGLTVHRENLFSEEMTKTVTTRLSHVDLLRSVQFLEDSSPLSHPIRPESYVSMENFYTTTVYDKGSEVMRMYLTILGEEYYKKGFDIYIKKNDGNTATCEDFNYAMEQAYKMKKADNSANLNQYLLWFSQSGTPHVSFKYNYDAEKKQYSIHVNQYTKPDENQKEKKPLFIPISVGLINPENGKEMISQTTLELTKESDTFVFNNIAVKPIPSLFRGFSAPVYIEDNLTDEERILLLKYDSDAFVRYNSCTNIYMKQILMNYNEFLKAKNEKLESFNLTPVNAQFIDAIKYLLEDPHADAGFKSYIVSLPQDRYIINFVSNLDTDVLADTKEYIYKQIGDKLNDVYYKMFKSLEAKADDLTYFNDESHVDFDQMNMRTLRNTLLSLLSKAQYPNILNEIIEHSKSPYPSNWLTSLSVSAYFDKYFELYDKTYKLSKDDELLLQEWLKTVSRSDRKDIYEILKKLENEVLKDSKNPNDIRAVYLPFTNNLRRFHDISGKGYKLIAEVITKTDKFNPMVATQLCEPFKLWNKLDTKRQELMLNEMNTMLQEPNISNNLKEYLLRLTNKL

[2] = target: Induced myeloid leukemia cell differentiation protein Mcl-1 (Homo sapiens, UniProt Q07820); type: functional
Chain of Induced myeloid leukemia cell differentiation protein Mcl-1 (Q07820 whole entry): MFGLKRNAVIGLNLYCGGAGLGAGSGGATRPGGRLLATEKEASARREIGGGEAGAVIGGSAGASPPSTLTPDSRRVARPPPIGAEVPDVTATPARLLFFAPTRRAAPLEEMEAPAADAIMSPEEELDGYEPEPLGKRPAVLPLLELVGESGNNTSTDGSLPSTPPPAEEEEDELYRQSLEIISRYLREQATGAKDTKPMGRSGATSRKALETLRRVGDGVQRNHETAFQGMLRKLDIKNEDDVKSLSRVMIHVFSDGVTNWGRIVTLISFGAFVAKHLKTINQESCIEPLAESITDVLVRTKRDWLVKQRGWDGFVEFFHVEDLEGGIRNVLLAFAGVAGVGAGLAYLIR

[3] = microbe, parasite or virus in culture; type: functional; details: Mycobacterium tuberculosis
[4] = C. albicans growth with fluconazole, confirmation, fluorescence, retest (AID 2467); type: functional, cell-based
[5] = NIH-3T3 fibroblast cytotoxicity, dose response, cytotoxicity control, cell-based, fluorescence, Alamar Blue, secondary assay (AID 2327); type: functional;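 also: NIH-3T3 mouse fibroblasts cultured with fluconazole at 8 µg/mL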
H9c2 = assay: cells; type: functional, cell-based; details: Rattus norvegicus, H9c2, Myocardium;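 also: confirmatory concentration-response retest of ultra-high-throughput screening hits for modulation of myocardial damage; cell death induced by hydrogen peroxide oxidative stress; compound pretreatment for 60 min then peroxide exposure for 2 h; potency is for protecting the cells against peroxide damage rather than for killing them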
Cytochrome P450 2C19 = Cytochrome P450 2C19 (Homo sapiens, UniProt P33261); assay: Cytochrome panel assay with activity outcomes. Panel member name: p450-cyp2c19 Compounds with AC50 equal or less than 10 uM are considered active; type: functional; details: read-out: AC50
Chain of Cytochrome P450 2C19 (P33261 whole entry, the tested form may be a part): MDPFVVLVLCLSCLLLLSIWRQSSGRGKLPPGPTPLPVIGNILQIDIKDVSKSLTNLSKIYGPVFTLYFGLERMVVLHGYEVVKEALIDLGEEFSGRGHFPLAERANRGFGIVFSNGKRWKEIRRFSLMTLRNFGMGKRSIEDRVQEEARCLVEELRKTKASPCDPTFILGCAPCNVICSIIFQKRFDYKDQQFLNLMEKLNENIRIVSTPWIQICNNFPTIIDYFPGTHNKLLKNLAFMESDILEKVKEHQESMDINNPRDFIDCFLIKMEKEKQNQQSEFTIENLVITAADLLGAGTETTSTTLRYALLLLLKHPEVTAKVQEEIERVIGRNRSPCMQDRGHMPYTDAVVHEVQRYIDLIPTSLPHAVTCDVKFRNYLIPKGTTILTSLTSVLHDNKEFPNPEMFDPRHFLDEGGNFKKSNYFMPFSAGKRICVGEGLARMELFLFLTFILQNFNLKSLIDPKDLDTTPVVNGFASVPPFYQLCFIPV

Fatty acid synthase [6] = target: T3, Fatty acid synthase (Homo sapiens, UniProt P49327); assay: FAS thioesterase domain inhibitors, dose response, biochemical, kinetic fluorescence intensity (AID 624326); type: functional;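 also: rate of fluorescence rise from hydrolysis of a fluorogenic O-methyl fluorescein ester substrate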
T3 sequence (P49327 whole entry, the tested form may be a part): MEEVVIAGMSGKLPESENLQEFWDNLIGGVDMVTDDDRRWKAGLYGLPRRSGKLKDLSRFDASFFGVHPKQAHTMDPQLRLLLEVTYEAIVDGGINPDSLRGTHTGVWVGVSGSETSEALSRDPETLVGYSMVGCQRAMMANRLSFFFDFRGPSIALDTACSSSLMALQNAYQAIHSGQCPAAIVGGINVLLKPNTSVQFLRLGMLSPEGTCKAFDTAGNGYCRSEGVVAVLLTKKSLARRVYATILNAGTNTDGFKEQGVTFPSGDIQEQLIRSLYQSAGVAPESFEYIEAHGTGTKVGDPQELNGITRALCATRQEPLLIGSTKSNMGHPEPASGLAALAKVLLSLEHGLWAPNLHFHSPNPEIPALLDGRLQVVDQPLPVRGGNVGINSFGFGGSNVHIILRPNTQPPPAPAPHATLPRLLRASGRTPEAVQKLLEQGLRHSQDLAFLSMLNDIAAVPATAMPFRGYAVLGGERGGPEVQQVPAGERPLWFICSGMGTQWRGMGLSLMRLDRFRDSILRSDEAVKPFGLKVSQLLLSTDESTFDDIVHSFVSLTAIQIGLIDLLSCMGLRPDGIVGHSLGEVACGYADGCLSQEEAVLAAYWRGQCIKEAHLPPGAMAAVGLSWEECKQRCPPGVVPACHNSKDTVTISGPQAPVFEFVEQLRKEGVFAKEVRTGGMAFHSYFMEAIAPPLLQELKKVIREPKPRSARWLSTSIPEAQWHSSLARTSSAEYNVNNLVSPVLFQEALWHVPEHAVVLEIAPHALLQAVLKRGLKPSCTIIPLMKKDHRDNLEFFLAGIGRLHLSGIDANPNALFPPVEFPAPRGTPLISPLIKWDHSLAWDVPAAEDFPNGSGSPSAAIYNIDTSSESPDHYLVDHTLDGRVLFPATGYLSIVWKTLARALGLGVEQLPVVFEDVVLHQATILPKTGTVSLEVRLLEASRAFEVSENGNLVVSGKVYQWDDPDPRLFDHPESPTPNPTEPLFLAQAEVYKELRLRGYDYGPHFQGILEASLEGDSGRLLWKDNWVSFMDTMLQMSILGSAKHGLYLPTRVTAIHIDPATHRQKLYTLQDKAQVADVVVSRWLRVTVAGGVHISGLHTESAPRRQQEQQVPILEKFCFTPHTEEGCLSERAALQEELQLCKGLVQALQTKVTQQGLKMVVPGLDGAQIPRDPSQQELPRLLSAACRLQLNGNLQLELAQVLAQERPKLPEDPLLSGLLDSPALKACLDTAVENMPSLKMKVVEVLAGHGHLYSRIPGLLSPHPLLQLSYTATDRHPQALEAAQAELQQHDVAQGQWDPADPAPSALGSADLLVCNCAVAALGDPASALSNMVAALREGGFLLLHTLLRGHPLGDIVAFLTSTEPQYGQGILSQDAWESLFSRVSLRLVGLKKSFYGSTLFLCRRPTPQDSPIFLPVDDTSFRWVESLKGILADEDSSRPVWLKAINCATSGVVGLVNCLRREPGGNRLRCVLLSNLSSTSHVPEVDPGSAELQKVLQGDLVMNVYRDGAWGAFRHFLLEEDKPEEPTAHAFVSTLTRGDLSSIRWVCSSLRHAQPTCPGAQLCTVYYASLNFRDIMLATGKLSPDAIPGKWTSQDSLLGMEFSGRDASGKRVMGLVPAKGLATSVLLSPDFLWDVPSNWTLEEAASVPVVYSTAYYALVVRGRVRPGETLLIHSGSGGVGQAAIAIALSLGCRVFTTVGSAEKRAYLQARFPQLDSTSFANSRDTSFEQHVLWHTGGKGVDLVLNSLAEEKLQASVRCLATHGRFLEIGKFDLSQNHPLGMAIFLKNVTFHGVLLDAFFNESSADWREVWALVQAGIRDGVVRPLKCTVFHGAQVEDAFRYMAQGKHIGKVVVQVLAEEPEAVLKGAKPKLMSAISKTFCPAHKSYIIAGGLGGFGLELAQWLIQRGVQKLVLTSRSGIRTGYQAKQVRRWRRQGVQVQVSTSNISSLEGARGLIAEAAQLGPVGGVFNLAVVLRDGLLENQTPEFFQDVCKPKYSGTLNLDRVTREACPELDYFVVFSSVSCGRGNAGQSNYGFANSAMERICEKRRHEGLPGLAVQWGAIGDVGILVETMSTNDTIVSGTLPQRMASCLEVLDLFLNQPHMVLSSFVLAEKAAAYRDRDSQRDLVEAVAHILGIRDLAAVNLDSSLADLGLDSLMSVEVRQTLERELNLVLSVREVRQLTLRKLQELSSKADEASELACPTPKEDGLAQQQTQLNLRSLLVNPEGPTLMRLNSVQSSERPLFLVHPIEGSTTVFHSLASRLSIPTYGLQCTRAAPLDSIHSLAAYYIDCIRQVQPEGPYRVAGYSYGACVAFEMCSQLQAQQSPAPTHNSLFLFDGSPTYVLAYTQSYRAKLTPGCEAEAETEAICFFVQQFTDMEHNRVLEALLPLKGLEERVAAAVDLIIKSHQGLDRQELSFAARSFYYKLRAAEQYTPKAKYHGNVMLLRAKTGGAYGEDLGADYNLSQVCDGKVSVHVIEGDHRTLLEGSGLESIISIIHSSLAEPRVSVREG

Fatty acid synthase [7] = target: T3, Fatty acid synthase; assay: FAS thioesterase domain inhibitors, dose response, biochemical, endpoint fluorescence intensity, uHTS hits (AID 624327); type: functional;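 also: fluorescence from hydrolysis of an O-methyl fluorescein acyl ester substrate by the enzyme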
Nonstructural protein 1 = Nonstructural protein 1 (Influenza A virus, UniProt Q194T2); type: functional, Influenza A virus (A/California/07/2009(H1N1))
Chain of Nonstructural protein 1 (Q194T2 whole entry): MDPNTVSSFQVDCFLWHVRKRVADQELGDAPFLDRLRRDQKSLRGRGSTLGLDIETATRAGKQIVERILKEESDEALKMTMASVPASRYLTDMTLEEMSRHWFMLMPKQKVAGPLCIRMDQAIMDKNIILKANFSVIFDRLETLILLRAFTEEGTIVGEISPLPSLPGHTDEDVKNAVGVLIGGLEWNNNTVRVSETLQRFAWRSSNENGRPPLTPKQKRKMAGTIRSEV

[8] = inhibitors of intracellular T. cruzi replication, confirmation, NIH3T3 host cells, beta-gal luminescence (AID 2044); type: functional, cell-based;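 also: intracellular parasites grown in NIH/3T3 mouse fibroblasts as host cells; luminescent beta-galactosidase reporter signal from transgenic T. cruzi replicating inside host cells; inhibitors lower the luminescence signal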
[9] = cytotoxicity toward NIH3T3 fibroblasts, dose response, counter-screen, cell-based, ATP luminescence, mouse fibroblasts (AID 2010); type: functional;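 also: cells exposed to compound for about 90 hours before reading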
Streptococcus = assay: Group A Streptococcus viability loss, dose response, counter-screen for streptokinase expression inhibitor project, luminescence, BacTiterGlo (AID 1915); type: functional, organism-based;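 also: potency for reduction of bacterial viability or growth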
[10] = test system: Streptococcus sp. 'group A'; assay: growth inhibition of control SK(-) GAS strain, dose response, counter-screen for streptokinase expression inhibitor project, luminescence, kanamycin, BacTiterGlo, confirmation (AID 1900); type: functional, organism-based
[11] = control 3'UTR Renilla luciferase suppression, dose response, counter-screen for Shn3 inhibitor project, cell-based, Clone20-Shn3RL, cherry-picked (AID 624133); type: functional
[12] = Shn3 3'UTR reporter inhibitors, dose response, cell-based, Clone20 osteoblasts, firefly luciferase, cherry-picked (AID 624132); type: functional;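 also: firefly luciferase luminescence from reporter carrying the Shn3 3'UTR in osteoblasts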
INS1 = assay: beta cell apoptosis inhibitors, cytokine rescue, dose response, luminescence, retest (AID 449756); type: functional, cell-based; details: Rattus norvegicus;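 also: cell death triggered by IL-1 beta plus TNF-alpha plus IFN-gamma mixture; protective hits raise ATP signal compared with cytokine alone wells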
[13] = HepG2 cell cytotoxicity, dose response, cytotoxicity control for Shn3 inhibitor project, CellTiter-Glo, cherry-picked (AID 624134); type: functional, cell-based
[14] = growth suppression of beta-catenin-knockout colon cells, dose response, cell-based, HCT116, human colon tumor (AID 1045); type: functional;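 also: HCT116 colon tumor cells with beta catenin knocked out; cells exposed to compound for 60 hours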
[15] = growth suppression of PTEN-null colon cells, dose response, cell-based, HCT116 PTEN knockout (AID 1047); type: functional;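 also: HCT116 colon tumor cells with PTEN knocked out; cells exposed to compound for 60 hours before readout; potency for loss of cell viability measured by luminescence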
[16] = target: T4, DNA repair protein RAD52 homolog (Homo sapiens, UniProt P43351); type: functional, biochemical
T4 sequence (P43351 whole entry): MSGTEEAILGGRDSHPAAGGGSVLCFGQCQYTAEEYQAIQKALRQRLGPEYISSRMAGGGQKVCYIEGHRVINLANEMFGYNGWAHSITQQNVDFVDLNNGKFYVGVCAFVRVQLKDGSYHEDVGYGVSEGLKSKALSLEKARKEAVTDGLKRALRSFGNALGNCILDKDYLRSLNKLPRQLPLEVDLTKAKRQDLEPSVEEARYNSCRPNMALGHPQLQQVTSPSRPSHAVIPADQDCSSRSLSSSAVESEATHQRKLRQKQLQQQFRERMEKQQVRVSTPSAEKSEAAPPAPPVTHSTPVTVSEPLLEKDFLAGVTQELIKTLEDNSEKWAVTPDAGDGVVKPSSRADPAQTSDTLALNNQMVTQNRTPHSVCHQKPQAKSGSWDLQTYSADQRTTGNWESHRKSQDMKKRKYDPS

Paired box protein Pax-8 = Paired box protein Pax-8 (Homo sapiens, UniProt Q06710); assay: inhibitors of PAX8-driven TPO luciferase reporter, dose response, RMG-I cells, cherry-pick (AID 687027); type: functional, cell-based;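 also: luciferase reporter driven by Pax8 target thyroperoxidase promoter measured by SteadyGlo luminescence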
Chain of Paired box protein Pax-8 (Q06710 whole entry, the tested form may be a part): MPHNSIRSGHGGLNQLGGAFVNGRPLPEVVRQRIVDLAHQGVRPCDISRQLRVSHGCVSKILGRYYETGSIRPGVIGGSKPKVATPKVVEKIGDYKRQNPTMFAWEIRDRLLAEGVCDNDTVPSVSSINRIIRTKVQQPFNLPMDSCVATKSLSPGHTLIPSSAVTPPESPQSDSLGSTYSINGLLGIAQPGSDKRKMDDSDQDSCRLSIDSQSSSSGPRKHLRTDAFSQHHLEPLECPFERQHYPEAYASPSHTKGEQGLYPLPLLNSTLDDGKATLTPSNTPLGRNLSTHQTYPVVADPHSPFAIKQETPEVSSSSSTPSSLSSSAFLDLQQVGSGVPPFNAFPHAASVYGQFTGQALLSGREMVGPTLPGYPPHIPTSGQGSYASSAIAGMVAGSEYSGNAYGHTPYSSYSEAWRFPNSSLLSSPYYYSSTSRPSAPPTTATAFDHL

[17] = ZM109 Env clade C HIV-1 fusion inhibitors, dose response, HeLa effector, CEM target cells, luciferase, cherry-pick (AID 652058); type: functional, cell-based
[18] = inhibitors of HIV Env-driven cell fusion, dose response, cherry-pick (AID 652057); type: functional, cell-based
[19] = inhibitors of clade B AD8 Env fusion, dose response, cell-based, cherry-pick (AID 652062); type: functional;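 also: luciferase signal from cell-cell fusion driven by HIV-1 clade B AD8 Env; potency is for inhibitors of fusion seen as a drop in luminescence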
[20] = P. falciparum Dd2 growth inhibitors, dose response, SYBR Green, cherry-picked samples (AID 1159567); type: functional, cell-based

C#CCOCCOCCOCCNc1nc(N2CCOCC2)nc(N2CCN(C(=O)CCCCCCCCCCNC(=O)[C@@H]([C@H](C)CC)n3cc(CCCCCN)nn3)CC2)n1
IC50 [1]: > 20 µM (inactive)

Cc1nnc(NC(=O)c2ccc3ccccc3n2)s1
IC50 (Aminopeptidase N): 36.8 µM (active)

Cc1cccc(NC(=O)CN2C(=O)N/C(=C/c3ccc(C)o3)C2=O)c1
IC50 [2]: < 0.4 µM (not active)

CC(=O)Nc1ccc(S(=O)(=O)Nc2nc3ccccc3nc2Nc2ccccc2)cc1
IC50 (Aminopeptidase N): 94.9 µM (active)

Cc1c(Cc2ccccc2)c(=O)oc2c(CN(C)C)c(O)c(Cl)cc12
IC50 (Aminopeptidase N): 33 µM (active)

C[C@@H]1CCCCCCCCC(=O)OCCN[C@H](C)CCCCCCCCC(=O)OCCN[C@H](C)CCCCCCCCC(=O)OCCN1
CC50 [3]: 26.5 µM (active) | IC50 [1]: > 20 µM (inactive)

CC(C)c1ccc(OCC(=O)Nc2cccc(C(=O)Nc3ccccc3C(=O)O)c2)cc1
EC50 [4]: 1.9 µM (active) | EC50 [5]: 16.9 µM (inconclusive)

CCOc1ccc(C(C(=O)NCC2CCCO2)N(C(=O)c2snc(C(N)=O)c2N)c2ccccc2F)cc1 (stereo unspecified)
IC50 (H9c2): > 79 µM (inactive) | IC50 [1]: > 20 µM (inactive)

CC(=O)Oc1ccc2c(C)c(CC(C)O)c(=O)oc2c1 (stereo unspecified)
IC50 (Aminopeptidase N): 62.4 µM (active)

Cc1ccc(C(=O)Nc2ccc(N3CCCC3)cc2)c(C)c1
IC50 [2]: 7.06 µM (not active)

CCCCCc1nc2c(O)nc3ccccc3c2o1
IC50 [2]: 28.3 µM (not active) | AC50 (Cytochrome P450 2C19): 3.98 µM (inconclusive)

COc1ccc(OC)c(-n2c(CN3CCC(C(N)=O)CC3)nc3ccccc3c2=O)c1
EC50 [4]: 3.29 µM (active) | EC50 [5]: > 150 µM (inactive)

Cc1c(C(=O)OCCOc2ccc(Br)cc2)sc(=S)n1C
IC50 (Fatty acid synthase [6]): 5.67 µM (active) | IC50 (Fatty acid synthase [7]): 7.07 µM (active)

O=C1Nc2ccccc2S/C1=C/NCc1ccccc1Cl
IC50 (Aminopeptidase N): 5.63 µM (active)

O=C(COc1cc(F)ccc1[N+](=O)[O-])Nc1ccc(N2CCCCC2)cc1
IC50 (Nonstructural protein 1): 21.3 µM (active)

C[C@@]12C(=O)Nc3cc(F)ccc3C(=O)N1[C@H]1c3ccccc3OC[C@@H]1[C@@H]2c1ccccc1
IC50 (Fatty acid synthase [6]): 20.3 µM (inactive) | IC50 (Fatty acid synthase [7]): 18.1 µM (active)

CCCOC(=O)/C(=C\c1ccc([N+](=O)[O-])o1)NC(=O)c1ccccc1
CC50 [3]: 35.1 µM (active) | EC50 [4]: 0.174 µM (active) | EC50 [5]: > 160 µM (inactive)

COc1ccccc1C(NC(C)=O)c1cc(Cl)c2cccnc2c1O (stereo unspecified)
EC50 [8]: 647 nM (active) | EC50 [9]: 2.85 µM (active) | EC50 (Streptococcus): 2.95 µM (active) | EC50 [10]: 2.9 µM (active) | AC50 [11]: 1.27 µM (active) | AC50 [12]: 2.56 µM (active) | AC50 (INS1): 1.38 µM (active) | AC50 [13]: 2.3 µM (active)

O=C(CN1C(=O)C2C3CC(C(Br)C3Br)C2C1=O)Nc1ccc(C(=O)O)cc1 (stereo unspecified)
IC50 (Aminopeptidase N): 62.5 µM (active)

CN1CCN(Cc2nc3ccccc3c(=O)n2Cc2nc(-c3ccc([N+](=O)[O-])cc3)cs2)CC1
EC50 [14]: 7.87 µM (active) | IC50 [1]: > 20 µM (inactive) | EC50 [15]: 4.88 µM (active)

COc1ccccc1C(=O)N=Nc1c(O)[nH]c2ccc([N+](=O)[O-])cc12
IC50 [2]: 2.92 µM (active)

COc1cccc(-n2c(CN3CCN(c4ccccc4)CC3)nc3ccc([N+](=O)[O-])cc3c2=O)c1
IC50 (Fatty acid synthase [6]): 7.99 µM (active) | IC50 (Fatty acid synthase [7]): 4.81 µM (active)

CCCS(=O)(=O)Nc1ccc(Nc2c3ccccc3nc3ccccc23)c(OC)c1
AC50 [11]: 1.03 µM (active) | AC50 [16]: 3.15 µM (active) | AC50 [12]: 3.39 µM (active) | AC50 [13]: 20.1 µM (active)

CCN(CC)CCNC(=O)c1nn(-c2ccc(Cl)cc2)c2c1CCc1cc(OC)ccc1-2
AC50 [16]: 16.8 µM (active)

O=C(Nc1cccc(C(=O)O)c1)/C(=C/c1cccc([N+](=O)[O-])c1)NC(=O)c1cccc(Br)c1
IC50 (Fatty acid synthase [6]): 13.2 µM (active) | IC50 (Fatty acid synthase [7]): 19.4 µM (active)

C/N=C(\C[N+](=O)[O-])NCCSCc1ccc(CN(C)C)o1
AC50 [16]: 12.5 µM (active)

CC1(C)CC(=O)C=C(c2ccc(-c3cnn(Cc4ccccc4)c3)cc2)C1=O
IC50 (Fatty acid synthase [6]): 8.05 µM (active) | IC50 (Fatty acid synthase [7]): 8.34 µM (active)

CC(C)CC#Cc1ccc2c(c1)O[C@H](CN(C)S(=O)(=O)c1ccc(F)cc1)[C@H](C)CN([C@@H](C)CO)S2(=O)=O
AC50 (Paired box protein Pax-8): 9.6 µM (active) | AC50 [17]: 20.8 µM (active) | AC50 [18]: 26.6 µM (active) | AC50 [19]: 23.7 µM (active)

CC(C)NC(=O)Nc1ccc2c(c1)CC(=O)N([C@H](C)CO)C[C@H](C)[C@H](CN(C)S(=O)(=O)c1ccccc1)O2
AC50 [17]: 10.7 µM (active) | AC50 [18]: 8.61 µM (active) | AC50 [19]: 35.9 µM (active)

O=C(N/N=C/c1ccc(Cl)cc1Cl)Nc1ccccc1
EC50 [4]: > 38 µM (not active) | EC50 [5]: > 160 µM (inactive)

COc1ccc(S(=O)(=O)N(C)C[C@H]2Oc3ncc(-c4ccncc4)cc3C(=O)N([C@H](C)CO)C[C@@H]2C)cc1
AC50 [20]: 6.55 µM (active)
